Assay results taken from patent US9120749B2, “Quinoline derivatives and MELK inhibitors containing the same” (ONCOTHERAPY SCIENCE, INC., priority 2010, dated 2015).
Like-named read-outs stand apart in the source and are kept apart here.

Tests used:
T47D cells = assay: Cell-based assay: anti-proliferative activity, Cell Counting Kit-8, 72 hours (T47D); conditions: Homo sapiens, T47D, 72 h
Procedure, shortened: (§1)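 Proliferation read with Cell Counting Kit-8 after 72 hours of inhibitor treatment, from seeding of 2,000–3,000 cells/well. Lines: T47D, A549, BT-549; HT-1197, lacking MELK by western blot, served as negative control. IC50 derived.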

DU4475 cells = assay: Cell-based assay: anti-proliferative activity, Cell Counting Kit-8, 72 hours (DU4475)
MELK = MELK (Homo sapiens, UniProt Q14680); assay: Kinase assay: MELK activity, phosphorylation of FITC-labeled histone H3 peptide measured by IMAP fluorescence polarization; assay type: biochemical; conditions: read-out: IC50 (μM) (kinase assay)
Procedure, shortened: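 Fluorescence polarization was measured 0.5 h (room temperature) after quenching with threefold volume of progressive binding solution. Test compounds from 12.5 mM DMSO stocks were assayed at 1% DMSO.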

HT-1197 cells = assay: Cell-based assay: anti-proliferative activity, Cell Counting Kit-8, 72 hours (HT-1197, negative control without MELK expression); conditions: Homo sapiens, HT1197, 72 h, HT1197 cells (negative control, no MELK expression), 72 hours
Procedure, shortened: as §1

A549 cells = assay: Cell-based assay: anti-proliferative activity, Cell Counting Kit-8, 72 hours (A549); conditions: 72 hours
Procedure, shortened: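 A549 cells were seeded in 96-well plates and exposed to candidate inhibitors for 72 hours. Cell growth was then measured with Cell Counting Kit-8, and IC50 values were calculated from the resulting growth data.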

Chain of MELK (Q14680 whole entry, looked up): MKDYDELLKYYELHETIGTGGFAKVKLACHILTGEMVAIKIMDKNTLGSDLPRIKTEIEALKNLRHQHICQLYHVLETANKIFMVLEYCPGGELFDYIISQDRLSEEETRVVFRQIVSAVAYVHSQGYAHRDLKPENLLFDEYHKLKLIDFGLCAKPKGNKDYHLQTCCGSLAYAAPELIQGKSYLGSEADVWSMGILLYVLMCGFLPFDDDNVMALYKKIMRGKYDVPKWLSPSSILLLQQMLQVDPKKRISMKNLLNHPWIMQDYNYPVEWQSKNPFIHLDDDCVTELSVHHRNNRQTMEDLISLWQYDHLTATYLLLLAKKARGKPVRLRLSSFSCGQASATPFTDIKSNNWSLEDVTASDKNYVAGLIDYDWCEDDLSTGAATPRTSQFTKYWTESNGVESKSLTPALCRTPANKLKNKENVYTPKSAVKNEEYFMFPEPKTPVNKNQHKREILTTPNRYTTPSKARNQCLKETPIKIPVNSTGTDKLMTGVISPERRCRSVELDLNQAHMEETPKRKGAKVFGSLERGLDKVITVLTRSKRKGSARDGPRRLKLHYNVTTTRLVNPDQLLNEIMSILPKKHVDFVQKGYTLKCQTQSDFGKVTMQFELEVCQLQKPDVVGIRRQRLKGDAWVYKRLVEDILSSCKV

Structure (SMILES)	IC50 (T47D cells) [µM]	IC50 (DU4475 cells; Homo sapiens, DU-4475, 72 h) [µM]	IC50 (MELK) [µM]	IC50 (HT-1197 cells) [µM]	IC50 (A549 cells; Homo sapiens, A549, 72 h) [µM]	IC50 (DU4475 cells) [µM]	IC50 (A549 cells) [µM]
N[C@H]1CCCN(c2ccc(Nc3c(C(=O)C4CC4)cnc4ccc(-c5cc(F)c(O)c(Cl)c5)cc34)cn2)C1 [Example 648, (S)-(4-(6-(3-aminopiperidin-1-yl)pyridin-3-ylamino)-6-(3-chloro-5-fluoro-4-hydroxyphenyl)quinolin-3-yl)(cyclopropyl)methanone]	0.0095	0.0046	0.0019	0.28	0.013		
CC1(N)CCC(Nc2c(C(=O)C3CC3)cnc3ccc(-c4cc(Cl)c(O)c(Cl)c4)cc23)CC1 (stereo not drawn) [Example 638, [4-(4-Amino-4-methylcyclohexylamino)-6-(3,5-dichloro-4-hydroxyphenyl)quinolin-3-yl](cyclopropyl)methanone]	0.1	0.022	0.0034	0.67	0.12		
O=C(c1cnc2ccc(-c3cc(Cl)c(O)c(Cl)c3)cc2c1Nc1ccc(NC2CCNC2)nc1)C1CC1 (stereo not drawn) [Example 666, cyclopropyl(6-(3,5-dichloro-4-hydroxyphenyl)-4-(6-(pyrrolidin-3-ylamino)pyridin-3-ylamino)quinolin-3-yl)methanone]	0.34	0.071	0.024	10	10		
N[C@@H]1CCCN(c2ccc(Nc3c(C(=O)C4CC4)cnc4ccc(-c5cc(F)c(O)c(Cl)c5)cc34)cn2)C1 [Example 651, (R)-(4-(6-(3-aminopiperidin-1-yl)pyridin-3-ylamino)-6-(3-chloro-5-fluoro-4-hydroxyphenyl)quinolin-3-yl)(cyclopropyl)methanone]	0.0054	0.0071	0.00076	0.12	0.0075		
CN(C)CCc1cccc(Nc2c(C(=O)C3CC3)cnc3ccc(-c4cc(F)c(O)c(Cl)c4)cc23)c1 [Example 693, {6-(3-Chloro-5-fluoro-4-hydroxyphenyl)-4-[3-(2-(dimethylamino)ethyl)phenylamino]quinolin-3-yl}(cyclopropyl)methanone]	0.37	0.085	0.0083	10	0.09		
CC(=O)c1cnc2ccc(-c3cc(Cl)c(O)c(Cl)c3)cc2c1N[C@@H]1CC[C@@H](CN2CCN(C)CC2)C1 [Example 728, 1-(6-(3,5-dichloro-4-hydroxyphenyl)-4-((1R,3R)-3-((4-methylpiperazin-1-yl)methyl)cyclopentylamino)quinolin-3-yl)ethanone]	0.83	0.48	0.0057	5.7	0.85		
CC(=O)c1cnc2ccc(-c3cc(F)c(O)c(Cl)c3)cc2c1N[C@H]1CC[C@H](CCN(C)C)CC1 [Example 741, 1-(6-(3-chloro-5-fluoro-4-hydroxyphenyl)-4-((trans-4-(2-(dimethylamino)ethyl)cyclohexyl)amino)quinolin-3-yl)ethanone]	0.037	0.062	0.0048	2	0.085		
O=C(c1cnc2ccc(-c3cc(F)c(O)c(Cl)c3)cc2c1N[C@H]1CC[C@H](CN2CCC(O)C2)CC1)C1CC1 (stereo partly drawn) [Example 631, (6-(3-chloro-5-fluoro-4-hydroxyphenyl)-4-((trans-4-((3-hydroxypyrrolidin-1-yl)methyl)cyclohexyl)amino)quinolin-3-yl)(cyclopropyl)methanone]	0.074	0.055	0.0021	0.85	0.17		
COc1cc(-c2ccc3ncc(C(=O)C4CC4)c(NC4CCC(C)(N)CC4)c3c2)cc(Cl)c1O (stereo not drawn) [Example 639, [4-(4-Amino-4-methylcyclohexylamino)-6-(3-chloro-4-hydroxy-5-methoxyphenyl)quinolin-3-yl](cyclopropyl)methanone]	0.1	0.062	0.0012	0.46	0.09		
COc1cc(-c2ccc3ncc(C(=O)C4CC4)c(N[C@H]4CC[C@H](CN5CCC(O)C5)CC4)c3c2)cc(Cl)c1O (stereo partly drawn) [Example 630]	0.41	0.17	0.0023	3.6	0.19		
COc1cc(-c2ccc3ncc(C(=O)C(C)C)c(Nc4ccc(CN(C)C)cc4)c3c2)cc(Cl)c1O [Example 640, 1-(6-(3-chloro-4-hydroxy-5-methoxyphenyl)-4-(4-((dimethylamino)methyl)phenylamino)quinolin-3-yl)-2-methylpropan-1-one]	0.54	0.52	0.027	0.82	0.61		
N[C@H]1CCCN(c2ccc(Nc3c(C(=O)C4CC4)cnc4ccc(-c5cc(Cl)c(O)c(Cl)c5)cc34)cn2)C1 [Example 646, (S)-(4-(6-(3-aminopiperidin-1-yl)pyridin-3-ylamino)-6-(3,5-dichloro-4-hydroxyphenyl)quinolin-3-yl)(cyclopropyl)methanone]	0.02		0.0011	0.56		0.0035	0.022
